Conditions: Liquid, Vibrating tube method

COC(C)(C)C [2-methoxy-2-methylpropane]
mass density [kg/m3]
Conditions | 303.15 K | 308.15 K | 313.15 K | 318.15 K | 323.15 K
100 kPa | – | 724.69 | 719.29 | 713.84 | 708.45
5000 kPa | – | 731.19 | 726.07 | 720.92 | 715.73
10000 kPa | – | 737.18 | 732.27 | 727.36 | 722.39
15000 kPa | – | 742.69 | 737.97 | 733.26 | 728.51
20000 kPa | – | 747.84 | 743.29 | 738.74 | 734.2
25000 kPa | – | 752.67 | 748.27 | 743.91 | 739.51
30000 kPa | – | 757.26 | 752.99 | 748.75 | 744.49
35000 kPa | 765.74 | 761.6 | 757.46 | 753.35 | 749.2
40000 kPa | 769.79 | 765.75 | 761.71 | 757.7 | 753.67
45000 kPa | 773.65 | 769.71 | 765.77 | 761.86 | 757.92
50000 kPa | 777.36 | 773.49 | 769.65 | 765.83 | 761.98
55000 kPa | 780.95 | 777.14 | 773.39 | 769.63 | 765.85
60000 kPa | 784.37 | 780.65 | 776.97 | 773.29 | 769.61
65000 kPa | 787.7 | 784.04 | 780.41 | 776.82 | 773.22
